Measurements from US7163947B2, “1-Amino 1H-imidazoquinolines” (3M Innovative Properties Company, priority 2003, dated 2007).

Row | SMILES | melting point [°C]
1 | CCc1nc2c(N)nc3ccccc3c2n1NC(C)C [Example 36, 2-Ethyl-N^1-isopropyl-1H-imidazo[4,5-c]quinoline-1,4-diamine] | 245 to 247
2 | CCOCc1nc2c(N)nc3cc(OCc4ccccc4)ccc3c2n1NC(C)C [Example 20, 7-Benzyloxy-2-ethoxymethyl-N^1-isopropyl-1H-imidazo[4,5-c]quinoline-1,4-diamine] | 194 to 196
3 | CC(C)Nn1c(CO)nc2c(N)nc3ccccc3c21 [Example 42, [4-Amino-1-(isopropylamino)-1H-imidazo[4,5-c]quinolin-2-yl]methanol] | 228 to 229
4 | CCOCc1nc2c(N)nc3ccccc3c2n1N(C)C [Example 7, N^1,N^1-Dimethyl-2-ethoxymethyl-1H-imidazo[4,5-c]quinoline-1,4-diamine] | 213 to 215
5 | CCCc1nc2c(N)nc3c(c2n1NC(C)C)CCCC3 [Example 17, N^1-Isopropyl-2-propyl-6,7,8,9-tetrahydro-1H-imidazo[4,5-c]quinoline-1,4-diamine] | 162 to 164
6 | CCCc1nc2c(N)nc3cc(-c4cccc(NS(C)(=O)=O)c4)ccc3c2n1NC(C)C [Example 27, N-{3-[4-Amino-1-(isopropylamino)-2-propyl-1H-imidazo[4,5-c]quinolin-7-yl]phenyl}methanesulfonamide] | 217 to 227
7 | CCCc1nc2c(N)nc3cc(CCc4cccnc4)ccc3c2n1NC(C)C [Example 35, N^1-Isopropyl-2-propyl-7-(2-pyridin-3-ylethyl)-1H-imidazo[4,5-c]quinoline-1,4-diamine] | 100 to 103
8 | CCOCc1nc2c(N)nc3ccccc3c2n1NCc1ccccc1 [Example 4, N^1-Benzyl-2-ethoxymethyl-1H-imidazo[4,5-c]quinoline-1,4-diamine] | 152 to 155
9 | CCNC(=O)NCCCNn1c(COCC)nc2c(N)nc3c(c21)CCCC3 [Example 39, 1-(3-{[4-Amino-2-(ethoxymethyl)-6,7,8,9-tetrahydro-1H-imidazo[4,5-c]quinolin-1-yl]amino}propyl)-3-ethylurea] | 189 to 191
10 | Cc1nc2c(N)nc3ccccc3c2n1NC(C)C [Example 3, N^1-Isopropyl-2-methyl-1H-imidazo[4,5-c]quinoline-1,4-diamine] | 227 to 229
11 | CCCc1nc2c(N)nc3ccccc3c2n1NC(C)C [Example 16, N^1-Isopropyl-2-propyl-1H-imidazo[4,5-c]quinoline-1,4-diamine] | 181 to 184
12 | CCCc1nc2c(N)nc3cc(-c4ccccc4)ccc3c2n1NC(C)C [Example 31, N^1-Isopropyl-7-phenyl-2-propyl-1H-imidazo[4,5-c]quinoline-1,4-diamine] | 217 to 220
13 | CCOCc1nc2c(N)nc3ccccc3c2n1N1CCOCC1 [Example 13, 2-Ethoxymethyl-1-(morpholin-4-yl)-1H-imidazo[4,5-c]quinolin-4-amine] | 223 to 224
14 | CCOCc1nc2c(N)nc3c(c2n1NCCCNC(=O)N1CCOCC1)CCCC3 [Example 28, N-(3-{[4-Amino-2-(ethoxymethyl)-6,7,8,9-tetrahydro-1H-imidazo[4,5-c]quinolin-1-yl]amino}propyl)morpholine-4-carboxamide] | 152 to 154
15 | CCc1nc2c(N)nc3c(c2n1NCCCNC(C)=O)CCCC3 [Example 41, N-{3-[(4-Amino-2-ethyl-6,7,8,9-tetrahydro-1H-imidazo[4,5-c]quinolin-1-yl)amino]propyl}acetamide] | 175 to 176
16 | CCCCc1nc2c(N)nc3ccccc3c2n1NCc1ccccc1 [Example 2, N^1-Benzyl-2-butyl-1H-imidazo[4,5-c]quinoline-1,4-diamine] | 159.3 to 160.5
17 | CCOCc1nc2c(N)nc3cc(OCCCNS(C)(=O)=O)ccc3c2n1NC(C)C [Example 30, N-(3-{[4-Amino-2-(ethoxymethyl)-1-(isopropylamino)-1H-imidazo[4,5-c]quinolin-7-yl]oxy}propyl)methanesulfonamide] | 181 to 183
18 | CCOCc1nc2c(N)nc3c(c2n1NCCCNC(=O)NC(C)C)CCCC3 [Example 26, 1-(3-{[4-Amino-2-(ethoxymethyl)-6,7,8,9-tetrahydro-1H-imidazo[4,5-c]quinolin-1-yl]amino}propyl)-3-isopropylurea] | 185 to 187
19 | CCCc1nc2c(N)nc3cc(-c4cccnc4)ccc3c2n1NC(C)C [Example 19, N^1-Isopropyl-2-propyl-7-(pyridin-3-yl)-1H-imidazo[4,5-c]quinoline-1,4-diamine] | 218 to 219
20 | CCCCc1nc2c(N)nc3ccccc3c2n1NC(C)C [Example 1, 2-Butyl-N^1-isopropyl-1H-imidazo[4,5-c]quinoline-1,4-diamine] | 157.1 to 158.7
21 | CCCc1nc2c(N)nc3cc(-c4cccc(C(=O)N5CCOCC5)c4)ccc3c2n1NC(C)C [Example 29, N^1-Isopropyl-7-[3-(morpholin-4-ylcarbonyl)phenyl]-2-propyl-1H-imidazo[4,5-c]quinoline-1,4-diamine] | 274 to 276
22 | CCOCc1nc2c(N)nc3c(c2n1NC(C)C)CCCC3 [Example 11, 2-Ethoxymethyl-N^1-isopropyl-6,7,8,9-tetrahydro-1H-imidazo[4,5-c]quinoline-1,4-diamine] | 144 to 146

Further lines, results first:

Row | melting point [°C] | SMILES
23 | 167 to 169 | CCc1nc2c(N)nc3ccccc3c2n1NCCCNC(C)=O [Example 40, N-{3-[(4-Amino-2-ethyl-1H-imidazo[4,5-c]quinolin-1-yl)amino]propyl}acetamide]
24 | 138 to 141 | CCNC(=O)NCCCNn1c(COCC)nc2c(N)nc3ccccc3c21 [Example 38, 1-(3-{[4-Amino-2-(ethoxymethyl)-1H-imidazo[4,5-c]quinolin-1-yl]amino}propyl)-3-ethylurea]
25 | 163 to 165 | CCOCc1nc2c(N)nc3c(c2n1NCCCNC(=O)C(C)C)CCCC3 [Example 33, N-(3-{[4-Amino-2-(ethoxymethyl)-6,7,8,9-tetrahydro-1H-imidazo[4,5-c]quinolin-1-yl]amino}propyl)-2-methylpropanamide]
26 | 148 to 150 | CCOCc1nc2c(N)nc3ccccc3c2n1NCCCNS(C)(=O)=O [Example 14, N-{3-[(4-Amino-2-ethoxymethyl-1H-imidazo[4,5-c]quinolin-1-yl)amino]propyl}methanesulfonamide]
27 | 129 to 132 | CCOCc1nc2c(N)nc3ccccc3c2n1NCCC(C)C [Example 12, 2-Ethoxymethyl-N^1-(3-methylbutyl)-1H-imidazo[4,5-c]quinoline-1,4-diamine]
28 | 125 to 128 | CCOCc1nc2c(N)nc3ccccc3c2n1NC(CC)CC [Example 9, 2-Ethoxymethyl-N^1-(1-ethylpropyl)-1H-imidazo[4,5-c]quinoline-1,4-diamine]
29 | 137 to 140 | CCOCc1nc2c(N)nc3ccccc3c2n1NCC(C)C [Example 10, 2-Ethoxymethyl-N^1-isobutyl-1H-imidazo[4,5-c]quinoline-1,4-diamine]
30 | 143 to 145 | CCOCc1nc2c(N)nc3ccccc3c2n1NC1CCCCC1 [Example 6, N^1-Cyclohexyl-2-(ethoxymethyl)-1H-imidazo[4,5-c]quinoline-1,4-diamine]
31 | 158 to 160 | CCOCc1nc2c(N)nc3ccccc3c2n1NCCCNC(=O)N1CCOCC1 [Example 23, [3-(4-Amino-2-ethoxymethyl-1H-imidazo[4,5-c]quinolin-1-ylamino)propyl]morpholine-4-carboxamide]
32 | 177 to 179 | CCOCc1nc2c(N)nc3ccccc3c2n1NCCCNC(=O)Nc1ccccc1 [Example 15, 1-{3-[(4-Amino-2-ethoxymethyl-1H-imidazo[4,5-c]quinolin-1-yl)amino]propyl}-3-phenylurea]
33 | 198 to 200 | CCOCc1nc2c(N)nc3c(c2n1NCCCNC(C)=O)CCCC3 [Example 37, N-(3-{[4-Amino-2-(ethoxymethyl)-6,7,8,9-tetrahydro-1H-imidazo[4,5-c]quinolin-1-yl]amino}propyl)acetamide]
34 | 108 to 110 | CCOCc1nc2c(N)nc3ccccc3c2n1NCCCNC(=O)C(C)C [Example 32, N-(3-{[4-Amino-2-(ethoxymethyl)-1H-imidazo[4,5-c]quinolin-1-yl]amino}propyl)-2-methylpropanamide]
35 | 162 to 164 | CCOCc1nc2c(N)nc3ccccc3c2n1NC(C)C [Example 5, 2-Ethoxymethyl-N^1-isopropyl-1H-imidazo[4,5-c]quinoline-1,4-diamine]
36 | 178 to 181 | CCOCc1nc2c(N)nc3ccccc3c2n1NCCCNC(C)=O [Example 34, N-(3-{[4-Amino-2-(ethoxymethyl)-1H-imidazo[4,5-c]quinolin-1-yl]amino}propyl)acetamide]
37 | 75 to 77 | CCOCc1nc2c(N)nc3ccccc3c2n1NCCCNC(=O)C1CCCC1 [Example 24, N-(3-{[4-Amino-2-(ethoxymethyl)-1H-imidazo[4,5-c]quinolin-1-yl]amino}propyl)cyclopentanecarboxamide]
38 | 174 to 177 | CCOCc1nc2c(N)nc3ccccc3c2n1NCCCNC(=O)NC(C)C [Example 25, 1-(3-{[4-Amino-2-(ethoxymethyl)-1H-imidazo[4,5-c]quinolin-1-yl]amino}propyl)-3-isopropylurea]
